Results taken from article PMC6010013, “Synthesis, physiochemical property and antimicrobial activity of novel quaternary ammonium salts” (Journal of Enzyme Inhibition and Medicinal Chemistry, 2017).
Read-outs that look alike come from different tables or passages of the source.

Columns and labels:
Aspergillus niger = assay: MBC, agar plating of dilutions without growth; type: cell-based; conditions: 99.9% bactericidal; for MBC: read-out: Minimal bactericidal concentration (MBC)
Text: (§1) In this paper, antimicrobial activities of 24 QASs were detected by quantitative tests. […] Benzalkonium chloride (BZK) and chlorhexidine acetate (CA) was selected as positive controls. Representative compound POT-C12QAS (2) which synthesised and evaluated in previous work was also taken as a reference compound in MIC, MBC and cytotoxicity tests. […]
(§2) agriculture were used as target pathogens in this study, including three strains of Gram-positive bacteria (S. Aureus, α-H-tococcus, β-H-tococcus), three strains of Gram-negative bacteria (E. coli, P. aeruginosa, Proteus vulgaris) and four strains of fungi (Canidia albicans, Cytospora mandshurica, Physalospora piricola, Aspergillus niger). The antimicrobial tests were assayed, according to standard CLSI methods for antimicrobial dilution susceptibility tests to measure the minimum inhibitory concentration (MIC) and minimum bactericidal concentration (MBC)2.
(§3) A broth tube dilution method was followed to determine the MIC values for all the screened compounds against the micro-organisms, and for comparison benzalkonium chloride (BZK) and chlorhexidine acetate (CA) was used as a reference. For sample preparation, each of the test compounds and reference were dissolved in DMSO or sterile water at a concentration of 1600 μg/mL, and further dilutions of the compounds and reference in culture medium MHB (Muller-Hinton Broth) were prepared at the required quantities of 400, 200, 100 etc., down to 0.39 μg/mL. Bacterial strains and fungal strains were maintained on MHA (Muller-Hinton Agar) medium at 37℃ or 28 ℃ for 12 h or 72h, respectively. The microbial inocula were prepared by suspension in 10 mL of culture medium for colonies from culture on MHA. The cell density of each inoculum was adjusted in culture medium of a 0.5 McFarland standard (1-2×10^8 CFU/mL). The final amount applied was 10^5 CFU/mL for bacteria and fungi. The microbial inocula were added to the twofold diluted samples. One growth control tube was prepared […] the addition of the compound and one blank tube was prepared without the addition of the microorganism. MIC values were read after incubation at 37℃ or 28 ℃ for bacterial and fungal strains, respectively. After 12 h or 72h, the last tube with no growth of micro-organisms was recorded to represent the MIC value expressed in μg/ml. All experiments were carried out three times. […]
(§4) was placed on agar plates in triplicate, and incubated at 37℃ or 28 ℃ for 12 h or 72h. The number of colonies on each plate was read, and the MBC was determined as the lowest concentration that achieved a 99.9% bactericidal in the agar plate.

Canidia albicans = assay: MBC, agar plating of dilutions without growth; type: cell-based; conditions: 99.9% bactericidal; for MBC: read-out: Minimal bactericidal concentration (MBC)
Text: as §1, §2, §3, §4

Cytospora mandshurica = assay: MBC, agar plating of dilutions without growth; type: cell-based; conditions: 99.9% bactericidal; for MBC: Cytospora, read-out: Minimal bactericidal concentration (MBC)
Text: as §1, §2, §3, §4

E. coli = assay: MBC, agar plating of dilutions without growth; type: cell-based; conditions: 99.9% bactericidal; for MBC: Escherichia coli, read-out: Minimal bactericidal concentration (MBC)
Text: as §1, §2, §3, §4

P. aeruginosa = assay: MBC, agar plating of dilutions without growth; type: cell-based; conditions: 99.9% bactericidal; for MBC: Pseudomonas aeruginosa, read-out: Minimal bactericidal concentration (MBC)
Text: as §1, §2, §3, §4

Physalospora piricola = assay: MBC, agar plating of dilutions without growth; type: cell-based; conditions: 99.9% bactericidal; for MBC: read-out: Minimal bactericidal concentration (MBC)
Text: as §1, §2, §3, §4

Proteus vulgaris = assay: MBC, agar plating of dilutions without growth; type: cell-based; conditions: 99.9% bactericidal; for MBC: read-out: Minimal bactericidal concentration (MBC)
Text: as §1, §2, §3, §4

S. aureus = assay: MBC, agar plating of dilutions without growth; type: cell-based; conditions: 99.9% bactericidal; for MBC: Staphylococcus aureus, read-out: Minimal bactericidal concentration (MBC)
Text: as §1, §2, §3, §4

α-H-tococcus = assay: MBC, agar plating of dilutions without growth; type: cell-based; conditions: 99.9% bactericidal; for MBC: read-out: Minimal bactericidal concentration (MBC)
Text: as §1, §2, §3, §4

Cytotoxicity, MTT assay = type: cell-based, human; conditions: human, MTT, 24 h
Procedure: (§5) These six series of antimicrobial compounds may be applied to daily or clinical disinfectants for unbroken skin and trauma, or agricultural fungicides alternatively. Thus, their cytotoxicity for skin or body tissues are crucial. In this study, the cytotoxicity of target compounds was evaluated for human immortalised epidermal (HaCat) and human normal liver (LO2) cell line using MTT assay. […] The IC50 values of 5a, 6a, 10a, 16a, 16 b were about more than 50 μg/mL for LO2 and HaCat.
(§6) Cytotoxicity Testing with MTT Method
(§7) Human immortalized epidermal cells (HaCat) line were cultured in Dulbecco’s modified Eagle’s medium containing 10% fetal bovine serum, 1% penicillin, and 1% streptomycin at 37°C in a 5% CO2/95% air incubator MCO-15AC (SANYO). Human normal liver cells (LO2) line were cultured in Roswell Park Memorial Institute medium containing 10% fetal bovine serum, 1% penicillin, and 1% streptomycin at 37°C in a 5% CO2/95% air incubator MCO-15AC (SANYO). HaCat or LO2 cells in 96-well plate were adjusted to 1.0 × 10^5 cells mL-1 and cells were passed and cell supernatant was pour out before plating on glass slide at 37°C, 5% CO2 for 24 h. Cells were pretreated with 100 μL QAS for 24 h and cell supernatant with QAS was pour out and washed with PBS buffer system. Then, the cells were treated with the MTT solution (MTT, 3-(4,5-dimethythiazol-2-yl)-2,5-diphenyl-tetrazolium bromide, 20 μL, 5 mg/mL) for 4 h. The dark blue formazan crystal formed in the intact cells was solubilized with dimethyl sulfoxide, and absorbance at 570 nm was measured with a microplate reader (Multiskan MK3-Thermo Labsystems, USA). The results were expressed as percentage of the control value from the normal cells without treatments of QAS. […]

[1] = test system: human immortalised epidermal (HaCat) cell line; assay: Cytotoxicity, MTT assay; type: cell-based
Procedure: as §5, §6, §7

[2] = test system: human normal liver (LO2) cell line; assay: Cytotoxicity, MTT assay; type: cell-based
Procedure: as §5, §6, §7

[3] = LO2 human normal liver cells, LO2 cells
[4] = HaCat human immortalised epidermal cells, HaCat cells

Row | Compound | MBC (Aspergillus niger) | MBC (Canidia albicans) | MBC (Cytospora mandshurica) | MBC (E. coli) | MBC (P. aeruginosa) | MBC (Physalospora piricola) | MBC (Proteus vulgaris) | MBC (S. aureus) | MBC (α-H-tococcus) | IC50 at 24 h (Cytotoxicity, MTT assay; HaCat cells) | IC50 at 24 h (Cytotoxicity, MTT assay; [3]) | other results
1 | C[N+](CCO)(CCO)CCCCCCCCCCCCSc1nc2ccccc2s1 [Compound 13d] | 6.25 µg/mL | 6.25 µg/mL | ~6.25 µg/mL | 25 µg/mL | 25 µg/mL | 3.12 µg/mL | 25 µg/mL | 6.25 µg/mL | 12.5 µg/mL | 6.02 ± 0.35 µg/mL | 8.96 ± 0.46 µg/mL | –
2 | C[N+](CCO)(CCO)CCCCCCSc1nnc(-c2ccc(F)cc2)o1 [Compound 5a] | 50 µg/mL | 50 µg/mL | 50 µg/mL | 100 µg/mL | 100 µg/mL | 12.5 µg/mL | 100 µg/mL | 100 µg/mL | 50 µg/mL | > 50 µg/mL | > 50 µg/mL | –
3 | C[N+](CCO)(CCO)CCCCCCCCCCSc1nnc(-c2ccc(F)cc2)o1 [Compound 5c] | 25 µg/mL | 25 µg/mL | 12.5 µg/mL | 50 µg/mL | 50 µg/mL | 6.25 µg/mL | 50 µg/mL | 25 µg/mL | 12.5 µg/mL | 19.4 ± 1.23 µg/mL | 23.9 ± 1.68 µg/mL | –
4 | [H]/N=C(\N/C(=N/[H])NCCCCCCNC(=N)NC(=N)Nc1ccc(Cl)cc1)Nc1ccc(Cl)cc1 [CA, chlorhexidine acetate, reference compound] | 6.25 µg/mL | 12.5 µg/mL | 6.25 µg/mL | 12.5 µg/mL | 25 µg/mL | 3.12 µg/mL | 12.5 µg/mL | 6.25 µg/mL | 6.25 µg/mL | – | – | –
5 | C[N+](CCO)(CCO)CCCCCCCCCCCCSc1nnc(-c2ccc(C(F)(F)F)cc2)o1.[Br-] [Compound 6d] | 6.25 µg/mL | 12.5 µg/mL | 6.25 µg/mL | 25 µg/mL | 50 µg/mL | 1.56 µg/mL | 25 µg/mL | 12.5 µg/mL | 6.25 µg/mL | – | 5.86 ± 0.61 µg/mL | IC50 at 24 h (Cytotoxicity, MTT assay; [4]): 5.25 ± 0.37 µg/mL; melting point: 88 to 90 °C
6 | Benzalkonium chloride [BZK, reference compound] | – | – | – | – | – | – | – | – | – | – | – | Minimal bactericidal concentration (MBC) (Aspergillus niger): 6.25 µg/mL; Minimal bactericidal concentration (MBC) (Canidia albicans): 25 µg/mL; Minimal bactericidal concentration (MBC) (Cytospora mandshurica): 6.25 µg/mL; Minimal bactericidal concentration (MBC) (E. coli): 25 µg/mL; Minimal bactericidal concentration (MBC) (P. aeruginosa): 25 µg/mL; Minimal bactericidal concentration (MBC) (Physalospora piricola): 3.125 µg/mL; Minimal bactericidal concentration (MBC) (Proteus vulgaris): 25 µg/mL; Minimal bactericidal concentration (MBC) (S. aureus): 3.125 µg/mL; Minimal bactericidal concentration (MBC) (α-H-tococcus): 3.125 µg/mL; Cytotoxicity IC50 [1]: 3.19 ± 0.26 µg/mL; Cytotoxicity IC50 [2]: 2.12 ± 0.43 µg/mL
7 | C[N+](CCO)(CCO)CCCCCCCCCCCCSc1nnc(-c2ccc(F)cc2)o1 [Compound 5d] | 25 µg/mL | 12.5 µg/mL | 12.5 µg/mL | 25 µg/mL | 50 µg/mL | 3.12 µg/mL | 25 µg/mL | 12.5 µg/mL | 12.5 µg/mL | 6.14 ± 0.53 µg/mL | 6.95 ± 0.62 µg/mL | –
8 | C[N+](CCO)(CCO)CCCCCCSc1nnc(-c2ccc(C(F)(F)F)cc2)o1 [Compound 6a] | 25 µg/mL | 50 µg/mL | 25 µg/mL | 50 µg/mL | 100 µg/mL | 12.5 µg/mL | 100 µg/mL | 50 µg/mL | 50 µg/mL | > 50 µg/mL | > 50 µg/mL | –
9 | C[N+](CCO)(CCO)CCCCCCCCSc1nnc(-c2ccc(C(F)(F)F)cc2)o1 [Compound 6b] | 25 µg/mL | 25 µg/mL | 12.5 µg/mL | 50 µg/mL | 50 µg/mL | 6.25 µg/mL | 50 µg/mL | 25 µg/mL | 25 µg/mL | > 25 µg/mL | > 25 µg/mL | Cytotoxicity IC50 ([1]; HaCat cells, MTT, 24 h): 32.57 ± 2.69 µg/mL; Cytotoxicity IC50 ([2]; LO2 cells, MTT, 24 h): 38.72 ± 2.92 µg/mL
10 | C[N+](CCO)(CCO)CCCCCCCCCCSc1nnc(-c2ccc(C(F)(F)F)cc2)o1.[Br-] [Compound 6c] | 12.5 µg/mL | 25 µg/mL | 12.5 µg/mL | 25 µg/mL | 50 µg/mL | 3.12 µg/mL | 25 µg/mL | 25 µg/mL | 12.5 µg/mL | – | 19.6 ± 1.62 µg/mL | IC50 at 24 h (Cytotoxicity, MTT assay; [4]): 12.1 ± 1.57 µg/mL; melting point: 102 to 103 °C
11 | C[N+](CCO)(CCO)CCCCCCCCCCCCSc1nnc(-c2ccccc2)o1 [Compound 2, reference compound] | 3.12 µg/mL | 12.5 µg/mL | 6.25 µg/mL | 50 µg/mL | 25 µg/mL | 3.12 µg/mL | 50 µg/mL | 12.5 µg/mL | 6.25 µg/mL | – | 14.2 ± 2.15 µg/mL | IC50 at 24 h (Cytotoxicity, MTT assay; [4]): 18.3 ± 2.21 µg/mL
